Measurements reported in patent US20080176936A1, “Classes of Compounds that Interact with Integrins” (priority 2005, published 2008).

Experiments:
αllbβ3 integrin = target: T1, αllbβ3 integrin (Homo sapiens, UniProt P05106+P08514); experiment: ELISA: inhibition of binding of αllbβ3 integrin membrane preparation to coated extracellular matrix protein; settings: human platelet membrane preparation
T1 construct: Human platelet membrane preparations were used as a source of αllbβ3 integrin; from tissue; host or cells: human platelets (membrane preparation)
T1 sequence (P08514 32-887 limits assumed): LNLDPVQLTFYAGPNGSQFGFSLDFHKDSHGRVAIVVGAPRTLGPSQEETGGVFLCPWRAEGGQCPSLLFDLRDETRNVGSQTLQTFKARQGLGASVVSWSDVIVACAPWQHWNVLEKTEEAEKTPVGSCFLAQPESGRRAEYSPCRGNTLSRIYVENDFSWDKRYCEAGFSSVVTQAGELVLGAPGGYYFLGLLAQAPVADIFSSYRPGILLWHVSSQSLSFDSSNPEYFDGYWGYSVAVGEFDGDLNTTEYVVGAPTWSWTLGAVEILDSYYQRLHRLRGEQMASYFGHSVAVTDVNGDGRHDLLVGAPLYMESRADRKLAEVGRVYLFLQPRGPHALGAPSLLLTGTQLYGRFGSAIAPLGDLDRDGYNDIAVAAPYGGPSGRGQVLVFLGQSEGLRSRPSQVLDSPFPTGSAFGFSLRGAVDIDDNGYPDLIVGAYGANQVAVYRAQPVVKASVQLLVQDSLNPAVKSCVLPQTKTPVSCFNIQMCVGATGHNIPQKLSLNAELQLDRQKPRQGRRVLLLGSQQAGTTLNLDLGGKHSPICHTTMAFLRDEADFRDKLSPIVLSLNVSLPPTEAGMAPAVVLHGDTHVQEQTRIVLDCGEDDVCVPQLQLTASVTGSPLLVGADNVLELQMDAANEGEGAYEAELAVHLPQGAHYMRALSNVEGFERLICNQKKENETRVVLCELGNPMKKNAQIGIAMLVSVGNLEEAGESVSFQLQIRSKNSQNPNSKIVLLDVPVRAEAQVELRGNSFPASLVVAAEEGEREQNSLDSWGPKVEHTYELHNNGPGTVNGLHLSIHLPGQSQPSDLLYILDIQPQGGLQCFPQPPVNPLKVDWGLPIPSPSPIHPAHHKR
T1 sequence (P08514 891-1039 partner limits assumed): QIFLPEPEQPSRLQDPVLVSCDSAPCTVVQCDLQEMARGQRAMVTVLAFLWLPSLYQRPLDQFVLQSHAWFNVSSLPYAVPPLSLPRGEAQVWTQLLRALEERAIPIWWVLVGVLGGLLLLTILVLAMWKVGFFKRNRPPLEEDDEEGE
T1 sequence (P05106 27-788): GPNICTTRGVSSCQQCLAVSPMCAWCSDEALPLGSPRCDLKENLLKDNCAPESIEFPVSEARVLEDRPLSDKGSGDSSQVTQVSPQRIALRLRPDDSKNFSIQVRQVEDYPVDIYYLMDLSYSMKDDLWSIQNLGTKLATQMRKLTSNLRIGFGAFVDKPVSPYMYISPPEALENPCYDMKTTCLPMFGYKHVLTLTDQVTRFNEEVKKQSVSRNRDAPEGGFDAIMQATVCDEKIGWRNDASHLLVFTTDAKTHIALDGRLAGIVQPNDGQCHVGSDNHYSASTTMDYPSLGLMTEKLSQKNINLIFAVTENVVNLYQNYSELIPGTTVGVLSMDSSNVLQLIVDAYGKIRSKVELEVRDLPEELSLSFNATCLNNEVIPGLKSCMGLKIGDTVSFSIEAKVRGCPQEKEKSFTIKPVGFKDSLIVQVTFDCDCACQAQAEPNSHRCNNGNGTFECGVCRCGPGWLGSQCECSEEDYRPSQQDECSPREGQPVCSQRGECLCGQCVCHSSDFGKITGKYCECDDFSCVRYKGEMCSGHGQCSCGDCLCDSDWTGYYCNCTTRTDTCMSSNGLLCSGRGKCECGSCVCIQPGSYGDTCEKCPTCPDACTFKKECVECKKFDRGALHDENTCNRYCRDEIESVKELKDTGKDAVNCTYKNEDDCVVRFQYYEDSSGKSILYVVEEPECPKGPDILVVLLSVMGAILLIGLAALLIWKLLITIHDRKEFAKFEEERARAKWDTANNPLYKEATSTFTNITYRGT
Method: (§1) An ELISA assay based on the published method of Bethert et al., 2000, J Biol Chem 275, 33308-23, was employed.
(§2) Briefly, appropriate microtitre plates were coated with either Fibrinogen or Vitronectin (10 μg/well). These extracellular matrix proteins contain the RGD amino acid sequence that is recognized by αllbβ3 integrin. Human platelet membrane preparations were used as a source of αllbβ3 integrin and the cell line WM-115 was used as a source of αVβ3 integrin. Inhibition of the binding of αllbβ3 integrin containing membrane preparations to the extracellular matrix protein was determined by pre-incubating the platelet membrane preparation with test or control compounds. The binding of the αllbβ3 integrin containing membrane was the quantitated by using a rabbit anti-integrinβ3 antibody, a horse radish peroxidase coupled second antibody and a standard colorimetric detection system.

αVβ3 integrin = target: T2, αVβ3 integrin (Homo sapiens, UniProt P05106+P06756); experiment: ELISA: inhibition of binding of αVβ3 integrin (source WM-115 cell line) to coated extracellular matrix protein; settings: WM-115 cell line as integrin source
T2 construct: the cell line WM-115 was used as a source of αVβ3 integrin; endogenous in cells; host or cells: WM-115 cell line
T2 sequence (P06756 31-889 limits assumed): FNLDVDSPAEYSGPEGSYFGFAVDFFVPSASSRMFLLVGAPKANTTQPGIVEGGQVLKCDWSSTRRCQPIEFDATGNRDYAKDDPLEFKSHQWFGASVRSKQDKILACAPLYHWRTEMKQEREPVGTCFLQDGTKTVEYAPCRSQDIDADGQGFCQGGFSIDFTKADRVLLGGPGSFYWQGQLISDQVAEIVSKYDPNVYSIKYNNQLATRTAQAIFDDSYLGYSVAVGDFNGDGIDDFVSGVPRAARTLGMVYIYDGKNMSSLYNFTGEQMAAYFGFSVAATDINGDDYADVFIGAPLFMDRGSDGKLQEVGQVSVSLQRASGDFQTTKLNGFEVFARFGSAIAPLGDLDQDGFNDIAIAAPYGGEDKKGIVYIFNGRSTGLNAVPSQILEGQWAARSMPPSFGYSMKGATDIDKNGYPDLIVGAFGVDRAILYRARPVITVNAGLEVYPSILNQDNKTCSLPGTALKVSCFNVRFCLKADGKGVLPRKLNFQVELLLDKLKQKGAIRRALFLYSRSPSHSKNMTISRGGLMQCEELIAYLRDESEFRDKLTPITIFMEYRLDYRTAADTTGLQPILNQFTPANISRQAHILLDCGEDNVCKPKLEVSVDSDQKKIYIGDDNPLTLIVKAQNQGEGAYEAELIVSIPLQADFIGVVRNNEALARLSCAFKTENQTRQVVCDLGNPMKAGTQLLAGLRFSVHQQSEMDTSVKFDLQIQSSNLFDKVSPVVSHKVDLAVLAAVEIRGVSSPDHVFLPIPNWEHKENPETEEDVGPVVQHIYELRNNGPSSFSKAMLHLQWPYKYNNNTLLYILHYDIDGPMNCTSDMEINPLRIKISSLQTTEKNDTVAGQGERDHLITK
T2 sequence (P06756 891-1048 partner limits assumed): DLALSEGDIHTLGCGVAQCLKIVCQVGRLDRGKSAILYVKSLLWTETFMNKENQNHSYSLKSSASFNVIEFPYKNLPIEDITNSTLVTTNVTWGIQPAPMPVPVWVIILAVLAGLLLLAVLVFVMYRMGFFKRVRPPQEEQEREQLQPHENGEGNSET
T2 sequence (P05106 27-788): as the sequence (P05106 27-788) above
Method: as §1, §2

Row | SMILES | INHIBITION @ 250 uM RECEPTOR allBb3 SUBSTRATE FIBRINOGEN (αllbβ3 integrin) | INHIBITION 250 uM RECEPTOR allBb3 SUBSTRATE VITRONECTIN (αllbβ3 integrin) | INHIBITION 250 uM RECEPTOR aVb3 SUBSTRATE FIBRINOGEN (αVβ3 integrin)
1 | COC1OC(COCc2ccc(Br)cc2)C(O)C(OCc2cccc(N)c2)C1NC(=O)CCC(=O)O (single isomer, unassigned) [Compound 25] | + (36% to 60% inhibition at 250 micromolar) | +++ (81% to 100% inhibition at 250 micromolar) | +++ (81% to 100% inhibition at 250 micromolar)
2 | COC1O[C@H](COCc2ccc(C(=O)O)cc2)[C@@H](O)[C@H](OCc2cccc(N)c2)[C@H]1NC(=O)c1ccc(Cl)cc1 (single isomer, unassigned) [Compound 31] | +++ (81% to 100% inhibition at 250 micromolar) | +++ (81% to 100% inhibition at 250 micromolar) | +++ (81% to 100% inhibition at 250 micromolar)
3 | COC1OC(COCc2cccc(N)c2)C(O)C(OCC(=O)O)C1NC(=O)c1ccc(Cl)cc1 (single isomer, unassigned) [Compound 10] | ++ (61% to 80% inhibition at 250 micromolar) | +++ (81% to 100% inhibition at 250 micromolar) | +++ (81% to 100% inhibition at 250 micromolar)
4 | COC1OC(COCc2ccc(Br)cc2)C(O)C(OCC(=O)O)C1NC(=O)c1cccc(N)c1 (single isomer, unassigned) [Compound 8] | + (36% to 60% inhibition at 250 micromolar) | +++ (81% to 100% inhibition at 250 micromolar) | +++ (81% to 100% inhibition at 250 micromolar)
5 | CCOC1O[C@H](COCc2ccc(C(=O)O)cc2)[C@@H](O)[C@H](OCc2ccccc2)[C@H]1NC(=O)c1cccc(N)c1 (single isomer, unassigned) [Compound 35] | + (36% to 60% inhibition at 250 micromolar) | +++ (81% to 100% inhibition at 250 micromolar) | +++ (81% to 100% inhibition at 250 micromolar)
6 | Nc1cccc(C(=O)NC2C(O)OC(COCC(=O)O)C(O)C2OCc2ccc(Br)cc2)c1 (single isomer, unassigned) [Compound 1] | + (36% to 60% inhibition at 250 micromolar) | + (36% to 60% inhibition at 250 micromolar) | − (0% to 35% inhibition at 250 micromolar)
7 | CCOC1OC(COCc2ccc(C(=O)O)cc2)C(O)C(OCc2cccc(N)c2)C1NC(=O)c1ccc(Cl)cc1 (single isomer, unassigned) [Compound 79] | + (36% to 60% inhibition at 250 micromolar) | +++ (81% to 100% inhibition at 250 micromolar) | +++ (81% to 100% inhibition at 250 micromolar)
8 | CCOC1O[C@H](COCc2cccc(N)c2)[C@@H](O)[C@H](OCC(=O)O)[C@H]1NC(=O)c1ccccc1 (single isomer, unassigned) [Compound 54] | − (0% to 35% inhibition at 250 micromolar) | ++ (61% to 80% inhibition at 250 micromolar) | + (36% to 60% inhibition at 250 micromolar)
9 | CCOC1OC(COCc2ccccc2)C(O)C(OCc2cccc(N)c2)C1NC(=O)c1ccc(C(=O)O)cc1 (single isomer, unassigned) [Compound 69] | − (0% to 35% inhibition at 250 micromolar) | +++ (81% to 100% inhibition at 250 micromolar) | +++ (81% to 100% inhibition at 250 micromolar)
10 | Nc1cccc(COC2C(O)C(COCc3ccccc3)OC(O)C2NC(=O)CCC(=O)O)c1 (single isomer, unassigned) [Compound 22] | + (36% to 60% inhibition at 250 micromolar) | + (36% to 60% inhibition at 250 micromolar) | + (36% to 60% inhibition at 250 micromolar)
11 | CCOC1C(O)C(COCc2ccc(C(=O)O)cc2)OC(OCc2ccccc2)C1NC(=O)CCNC(=N)N (single isomer, unassigned) [Compound 87] | − (0% to 35% inhibition at 250 micromolar) | +++ (81% to 100% inhibition at 250 micromolar) | − (0% to 35% inhibition at 250 micromolar)
12 | COC1OC(COCc2ccccc2)C(O)C(OCc2cccc(N)c2)C1NC(=O)CCC(=O)O (single isomer, unassigned) [Compound 20] | +++ (81% to 100% inhibition at 250 micromolar) | +++ (81% to 100% inhibition at 250 micromolar) | +++ (81% to 100% inhibition at 250 micromolar)
13 | CCC(=O)NC1C(OCc2ccccc2)OC(COCc2ccc(C(=O)O)cc2)C(O)C1OCc1cccc(N)c1 (single isomer, unassigned) [Compound 111] | − (0% to 35% inhibition at 250 micromolar) | +++ (81% to 100% inhibition at 250 micromolar) | − (0% to 35% inhibition at 250 micromolar)
14 | CCOC1OC(COCC(=O)O)C(O)C(OCc2ccccc2)C1NC(=O)CN (single isomer, unassigned) [Compound 117] | + (36% to 60% inhibition at 250 micromolar) | +++ (81% to 100% inhibition at 250 micromolar) | − (0% to 35% inhibition at 250 micromolar)
15 | Nc1cccc(COC2C(NC(=O)c3ccc(Cl)cc3)COC(COCC(=O)O)C2O)c1 (stereo not drawn) [Compound 80] | ++ (61% to 80% inhibition at 250 micromolar) | +++ (81% to 100% inhibition at 250 micromolar) | + (36% to 60% inhibition at 250 micromolar)
16 | Nc1cccc(COC[C@H]2OC(O)[C@H](NC(=O)CCC(=O)O)[C@@H](OCc3ccc(Br)cc3)[C@@H]2O)c1 (single isomer, unassigned) [Compound 47] | + (36% to 60% inhibition at 250 micromolar) | +++ (81% to 100% inhibition at 250 micromolar) | − (0% to 35% inhibition at 250 micromolar)
17 | Nc1cccc(COC2C(O)C(COCc3ccc(C(=O)O)cc3)OC(O)C2NC(=O)c2ccc(Cl)cc2)c1 (single isomer, unassigned) [Compound 82] | ++ (61% to 80% inhibition at 250 micromolar) | + (36% to 60% inhibition at 250 micromolar) | ++ (61% to 80% inhibition at 250 micromolar)
18 | COC1OC(COCC(=O)O)C(O)C(OCc2ccccc2)C1NC(=O)C1CCNCC1 (single isomer, unassigned) [Compound 134] | +++ (81% to 100% inhibition at 250 micromolar) | +++ (81% to 100% inhibition at 250 micromolar) | − (0% to 35% inhibition at 250 micromolar)
19 | COC1OC(COCc2ccccc2)C(O)C(OCc2ccc(C(=O)O)cc2)C1NC(=O)CCNC(=N)N (single isomer, unassigned) [Compound 11] | + (36% to 60% inhibition at 250 micromolar) | +++ (81% to 100% inhibition at 250 micromolar) | + (36% to 60% inhibition at 250 micromolar)
20 | COC1OC(COCc2ccc(Br)cc2)C(O)C(OCc2cccc(N)c2)C1NC(=O)CCC(=O)O (single isomer, unassigned) [Compound 24] | + (36% to 60% inhibition at 250 micromolar) | +++ (81% to 100% inhibition at 250 micromolar) | ++ (61% to 80% inhibition at 250 micromolar)
21 | Nc1cccc(COCC2OC(O)C(NC(=O)c3ccc(Cl)cc3)C(OCc3ccc(C(=O)O)cc3)C2O)c1 (single isomer, unassigned) [Compound 67] | + (36% to 60% inhibition at 250 micromolar) | +++ (81% to 100% inhibition at 250 micromolar) | − (0% to 35% inhibition at 250 micromolar)
